Results as given in ChEMBL document CHEMBL3885881, “DrugMatrix”.

Species on record: Rattus norvegicus
Test: DrugMatrix - Regimen: Daily Repeat
Format: toxicity, organism-based, Sprague-Dawley
Set-up: regimen Daily Repeat, gender Male, age 6-8 weeks
Conditions: in vivo, po, route oral GAVAGE, vehicle 100 % WATER; for ABSOLUTE BASOPHIL / ABSOLUTE EOSINOPHIL / ABSOLUTE LYMPHOCYTE / ABSOLUTE MONOCYTE / ABSOLUTE SEGMENTED NEUTROPHIL / BASOPHIL / EOSINOPHIL / ERYTHROCYTE COUNT / HEMATOCRIT / HEMOGLOBIN / LEUKOCYTE COUNT / LYMPHOCYTE / MEAN CORPUSCULAR HEMOGLOBIN / MEAN CORPUSCULAR HEMOGLOBIN CONCENTRATION / MEAN CORPUSCULAR VOLUME / MONOCYTE / NEUTROPHIL / NUCLEATED RED BLOOD CELLS / PLATELET COUNT: tissue Blood; for ALANINE AMINOTRANSFERASE / ALBUMIN / ALKALINE PHOSPHATASE / ASPARTATE AMINOTRANSFERASE / BLOOD UREA NITROGEN / CARBON DIOXIDE / CHLORIDE / CHOLESTEROL / CREATINE PHOSPHOKINASE / CREATININE / GLUCOSE / LACTATE DEHYDROGENASE / LIPASE / PHOSPHORUS / POTASSIUM / SODIUM / TOTAL BILIRUBIN / TOTAL PROTEIN / URIC ACID: tissue Plasma
[1] = 0 mg/kg, 72 h, dose level Control, time 3 day
[2] = 0 mg/kg, 120 h, dose level Control, time 5 day
[3] = 30 mg/kg, 72 h, dose level Low, time 3 day

CC1COc2c(N3CCN(C)CC3)c(F)cc3c(=O)c(C(=O)O)cn1c23 (centres undefined) [OFLOXACIN]
ABSOLUTE BASOPHIL [1]: 0 CELLS/uL
ABSOLUTE EOSINOPHIL [1]: 0 CELLS/uL
ABSOLUTE LYMPHOCYTE [1]: 10386.33 CELLS/uL
ABSOLUTE MONOCYTE [1]: 88.5 CELLS/uL
ABSOLUTE SEGMENTED NEUTROPHIL [1]: 1008.5 CELLS/uL
BASOPHIL [1]: 0%
EOSINOPHIL [1]: 0%
ERYTHROCYTE COUNT [1]: 5.16 x10E6/uL
HEMATOCRIT [1]: 32.43%
HEMOGLOBIN [1]: 12.98 G/DL
LEUKOCYTE COUNT [1]: 11.48 x10E3/uL
LYMPHOCYTE [1]: 92.33%
MEAN CORPUSCULAR HEMOGLOBIN [1]: 25.23 pg
MEAN CORPUSCULAR HEMOGLOBIN CONCENTRATION [1]: 40.08 G/DL
MEAN CORPUSCULAR VOLUME [1]: 62.95 fL
MONOCYTE [1]: 0.67%
NEUTROPHIL [1]: 7%
NUCLEATED RED BLOOD CELLS [1]: 0 /100WBC
PLATELET COUNT [1]: 1016.67 x10E3/uL
ALANINE AMINOTRANSFERASE [1]: 62.17 u/L
ALBUMIN [1]: 3.95 G/DL
ALKALINE PHOSPHATASE [1]: 363.5 u/L
ASPARTATE AMINOTRANSFERASE [1]: 118 u/L
BLOOD UREA NITROGEN [1]: 14.5 mg/dL
CARBON DIOXIDE [1]: 22.83 mmol/L
CHLORIDE [1]: 100.67 MEQ/L
CHOLESTEROL [1]: 66 mg/dL
CREATINE PHOSPHOKINASE [1]: 1308.83 u/L
CREATININE [1]: 0.22 mg/dL
GLUCOSE [1]: 187.5 mg/dL
LACTATE DEHYDROGENASE [1]: 380.17 u/L
LIPASE [1]: 16.17 u/L
PHOSPHORUS [1]: 14.27 mg/dL
POTASSIUM [1]: 6.8 MEQ/L
SODIUM [1]: 142.53 MEQ/L
TOTAL BILIRUBIN [1]: 0.2 mg/dL
TOTAL PROTEIN [1]: 5.68 G/DL
URIC ACID [1]: 2.87 mg/dL
ABSOLUTE BASOPHIL [2]: 0 CELLS/uL
ABSOLUTE EOSINOPHIL [2]: 80 CELLS/uL
ABSOLUTE LYMPHOCYTE [2]: 13301.33 CELLS/uL
ABSOLUTE MONOCYTE [2]: 180.83 CELLS/uL
ABSOLUTE SEGMENTED NEUTROPHIL [2]: 1187.83 CELLS/uL
BASOPHIL [2]: 0%
EOSINOPHIL [2]: 0.5%
ERYTHROCYTE COUNT [2]: 5.54 x10E6/uL
HEMATOCRIT [2]: 35.65%
HEMOGLOBIN [2]: 14.22 G/DL
LEUKOCYTE COUNT [2]: 14.75 x10E3/uL
LYMPHOCYTE [2]: 90.67%
MEAN CORPUSCULAR HEMOGLOBIN [2]: 25.65 pg
MEAN CORPUSCULAR HEMOGLOBIN CONCENTRATION [2]: 39.88 G/DL
MEAN CORPUSCULAR VOLUME [2]: 64.35 fL
MONOCYTE [2]: 1%
NEUTROPHIL [2]: 7.83%
NUCLEATED RED BLOOD CELLS [2]: 0.17 /100WBC
PLATELET COUNT [2]: 1285.33 x10E3/uL
ALANINE AMINOTRANSFERASE [2]: 51.67 u/L
ALBUMIN [2]: 4.08 G/DL
ALKALINE PHOSPHATASE [2]: 391.5 u/L
ASPARTATE AMINOTRANSFERASE [2]: 99.5 u/L
BLOOD UREA NITROGEN [2]: 15.5 mg/dL
CARBON DIOXIDE [2]: 28.33 mmol/L
CHLORIDE [2]: 101.83 MEQ/L
CHOLESTEROL [2]: 67.83 mg/dL
CREATINE PHOSPHOKINASE [2]: 771.33 u/L
CREATININE [2]: 0.23 mg/dL
GLUCOSE [2]: 156.5 mg/dL
LACTATE DEHYDROGENASE [2]: 544.33 u/L
LIPASE [2]: 10.17 u/L
PHOSPHORUS [2]: 12.03 mg/dL
POTASSIUM [2]: 6.81 MEQ/L
SODIUM [2]: 144.13 MEQ/L
TOTAL BILIRUBIN [2]: 0.22 mg/dL
TOTAL PROTEIN [2]: 6 G/DL
URIC ACID [2]: 2.18 mg/dL
ABSOLUTE BASOPHIL [3]: 0 CELLS/uL
ABSOLUTE EOSINOPHIL [3]: 95.33 CELLS/uL
ABSOLUTE LYMPHOCYTE [3]: 12358.67 CELLS/uL
ABSOLUTE MONOCYTE [3]: 136.33 CELLS/uL
ABSOLUTE SEGMENTED NEUTROPHIL [3]: 1043 CELLS/uL
BASOPHIL [3]: 0%
EOSINOPHIL [3]: 0.67%
ERYTHROCYTE COUNT [3]: 5.52 x10E6/uL
HEMATOCRIT [3]: 36.03%
HEMOGLOBIN [3]: 13.97 G/DL
LEUKOCYTE COUNT [3]: 13.63 x10E3/uL
LYMPHOCYTE [3]: 90.67%
MEAN CORPUSCULAR HEMOGLOBIN [3]: 25.4 pg
MEAN CORPUSCULAR HEMOGLOBIN CONCENTRATION [3]: 38.77 G/DL
MEAN CORPUSCULAR VOLUME [3]: 65.33 fL
MONOCYTE [3]: 1%
NEUTROPHIL [3]: 7.67%
NUCLEATED RED BLOOD CELLS [3]: 0 /100WBC
PLATELET COUNT [3]: 1082 x10E3/uL
ALANINE AMINOTRANSFERASE [3]: 46.67 u/L
ALBUMIN [3]: 4.03 G/DL
ALKALINE PHOSPHATASE [3]: 420.67 u/L
ASPARTATE AMINOTRANSFERASE [3]: 75 u/L
BLOOD UREA NITROGEN [3]: 13.33 mg/dL
CARBON DIOXIDE [3]: 28 mmol/L
CHLORIDE [3]: 100.33 MEQ/L
CHOLESTEROL [3]: 76.33 mg/dL
CREATINE PHOSPHOKINASE [3]: 165.33 u/L
CREATININE [3]: 0.19 mg/dL
GLUCOSE [3]: 159 mg/dL
LACTATE DEHYDROGENASE [3]: 114 u/L
LIPASE [3]: 10.67 u/L
PHOSPHORUS [3]: 13.07 mg/dL
POTASSIUM [3]: 6.69 MEQ/L
SODIUM [3]: 143.73 MEQ/L
TOTAL BILIRUBIN [3]: 0.2 mg/dL
TOTAL PROTEIN [3]: 5.87 G/DL
URIC ACID [3]: 1.23 mg/dL
